Source: patent US20120245137A1 (Zalicus Pharmaceuticals Ltd., priority 2009, published 2012)
Where two headings read alike, the source gives them in different places.

Tests used:
mice = test: Mouse rotarod assay; settings: rod at 6 rpm
Description: In mice, the rotarod procedure (Dunham and Miya, J. Am. Pharmacol. Assoc. 46:208-209 (1957)) is used to disclose minimal muscular or neurological impairment (MMI). When a mouse is placed on a rod that rotates at a speed of 6 rpm, the animal can maintain its equilibrium for long periods of time. The animal is considered toxic if it falls off this rotating rod three times during a 1-min period.

male CF1 mice = test: 6 Hz psychomotor seizure model of partial epilepsy; type: in vivo; design: concentration or dose not given beside the values; settings: 6 Hz 32 mA corneal stimulus
Description: Compounds can also be evaluated for the protection against seizures induced by a 6 Hz, 0.2 ms rectangular pulse width of 3 s duration, at a stimulus intensity of 32 mA (CC97) applied to the cornea of male CF1 mice (20-30 g) according to procedures described by Barton et al, “Pharmacological Characterization of the 6 Hz Psychomotor Seizure Model of Partial Epilepsy,” Epilepsy Res. 47(3):217-27 (2001). Seizures are characterised by the expression of one or more of the following behaviours: stun, forelimb clonus, twitching of the vibrissae and Straub-tail immediately following electrical stimulation.

CAv1.2 = CAv1.2 (Homo sapiens, UniProt Q13936); test: L-type (CAv1.2) channel blocking, FLIPR data (Table 6); type: cell-based
T-type calcium channel [1] = molecular target: T-type calcium channel (Homo sapiens, UniProt O95180); test: T-type channel blocking, FLIPR data (Table 6); type: cell-based; settings: for CAv3.2 IC50 Ratio closed/inact.: CAv3.2, ratio closed/inact.
Description: (§1) Another method, high-throughput spectrophotometric assay, utilizes loading of the cell lines with a fluorescent dye sensitive to intracellular calcium concentration and subsequent examination of the effects of compounds on the ability of depolarization by potassium chloride or other means to alter intracellular calcium levels.

T-type calcium channel [2] = molecular target: T-type calcium channel (Homo sapiens, UniProt O43497); test: T-type channel blocking, FLIPR data (Table 6); type: cell-based; settings: CAv3.1
Description: as §1

Human Cav 2.2 channels = Human Cav 2.2 channels (Homo sapiens, UniProt Q00975); test: Fluorescent assay for CaV2.2 channels using potassium depolarization (VIPR/FLIPR); type: cell-based; settings: FLIPR data
Method in brief: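 HEK293 cells stably expressing human Cav2.2 with α2δ and β subunits plus Kir2.3 were loaded with fluo-4 and incubated 30 min at 25 °C with compound in 4, 12, 25 or 30 mM potassium buffer. Channels were opened with 70 mM potassium (final) and calcium influx was read by fluorescence (Ex 480/Em 535 nm).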

[3] = closed state, read-out: CAv1.2 IC50 Closed
[4] = inactivated state, read-out: CAv1.2 IC50 Inact.
[5] = CAv3.2, closed state, read-out: CAv3.2 IC50 Closed
[6] = CAv3.2, inactivated state, read-out: CAv3.2 IC50 Inact.
[7] = closed state, read-out: CAv2.2 IC50 Closed
[8] = inactivated state, read-out: CAv2.2 IC50 Inact.

Chain of T-type calcium channel (Homo sapiens, UniProt O95180) (O95180 whole entry): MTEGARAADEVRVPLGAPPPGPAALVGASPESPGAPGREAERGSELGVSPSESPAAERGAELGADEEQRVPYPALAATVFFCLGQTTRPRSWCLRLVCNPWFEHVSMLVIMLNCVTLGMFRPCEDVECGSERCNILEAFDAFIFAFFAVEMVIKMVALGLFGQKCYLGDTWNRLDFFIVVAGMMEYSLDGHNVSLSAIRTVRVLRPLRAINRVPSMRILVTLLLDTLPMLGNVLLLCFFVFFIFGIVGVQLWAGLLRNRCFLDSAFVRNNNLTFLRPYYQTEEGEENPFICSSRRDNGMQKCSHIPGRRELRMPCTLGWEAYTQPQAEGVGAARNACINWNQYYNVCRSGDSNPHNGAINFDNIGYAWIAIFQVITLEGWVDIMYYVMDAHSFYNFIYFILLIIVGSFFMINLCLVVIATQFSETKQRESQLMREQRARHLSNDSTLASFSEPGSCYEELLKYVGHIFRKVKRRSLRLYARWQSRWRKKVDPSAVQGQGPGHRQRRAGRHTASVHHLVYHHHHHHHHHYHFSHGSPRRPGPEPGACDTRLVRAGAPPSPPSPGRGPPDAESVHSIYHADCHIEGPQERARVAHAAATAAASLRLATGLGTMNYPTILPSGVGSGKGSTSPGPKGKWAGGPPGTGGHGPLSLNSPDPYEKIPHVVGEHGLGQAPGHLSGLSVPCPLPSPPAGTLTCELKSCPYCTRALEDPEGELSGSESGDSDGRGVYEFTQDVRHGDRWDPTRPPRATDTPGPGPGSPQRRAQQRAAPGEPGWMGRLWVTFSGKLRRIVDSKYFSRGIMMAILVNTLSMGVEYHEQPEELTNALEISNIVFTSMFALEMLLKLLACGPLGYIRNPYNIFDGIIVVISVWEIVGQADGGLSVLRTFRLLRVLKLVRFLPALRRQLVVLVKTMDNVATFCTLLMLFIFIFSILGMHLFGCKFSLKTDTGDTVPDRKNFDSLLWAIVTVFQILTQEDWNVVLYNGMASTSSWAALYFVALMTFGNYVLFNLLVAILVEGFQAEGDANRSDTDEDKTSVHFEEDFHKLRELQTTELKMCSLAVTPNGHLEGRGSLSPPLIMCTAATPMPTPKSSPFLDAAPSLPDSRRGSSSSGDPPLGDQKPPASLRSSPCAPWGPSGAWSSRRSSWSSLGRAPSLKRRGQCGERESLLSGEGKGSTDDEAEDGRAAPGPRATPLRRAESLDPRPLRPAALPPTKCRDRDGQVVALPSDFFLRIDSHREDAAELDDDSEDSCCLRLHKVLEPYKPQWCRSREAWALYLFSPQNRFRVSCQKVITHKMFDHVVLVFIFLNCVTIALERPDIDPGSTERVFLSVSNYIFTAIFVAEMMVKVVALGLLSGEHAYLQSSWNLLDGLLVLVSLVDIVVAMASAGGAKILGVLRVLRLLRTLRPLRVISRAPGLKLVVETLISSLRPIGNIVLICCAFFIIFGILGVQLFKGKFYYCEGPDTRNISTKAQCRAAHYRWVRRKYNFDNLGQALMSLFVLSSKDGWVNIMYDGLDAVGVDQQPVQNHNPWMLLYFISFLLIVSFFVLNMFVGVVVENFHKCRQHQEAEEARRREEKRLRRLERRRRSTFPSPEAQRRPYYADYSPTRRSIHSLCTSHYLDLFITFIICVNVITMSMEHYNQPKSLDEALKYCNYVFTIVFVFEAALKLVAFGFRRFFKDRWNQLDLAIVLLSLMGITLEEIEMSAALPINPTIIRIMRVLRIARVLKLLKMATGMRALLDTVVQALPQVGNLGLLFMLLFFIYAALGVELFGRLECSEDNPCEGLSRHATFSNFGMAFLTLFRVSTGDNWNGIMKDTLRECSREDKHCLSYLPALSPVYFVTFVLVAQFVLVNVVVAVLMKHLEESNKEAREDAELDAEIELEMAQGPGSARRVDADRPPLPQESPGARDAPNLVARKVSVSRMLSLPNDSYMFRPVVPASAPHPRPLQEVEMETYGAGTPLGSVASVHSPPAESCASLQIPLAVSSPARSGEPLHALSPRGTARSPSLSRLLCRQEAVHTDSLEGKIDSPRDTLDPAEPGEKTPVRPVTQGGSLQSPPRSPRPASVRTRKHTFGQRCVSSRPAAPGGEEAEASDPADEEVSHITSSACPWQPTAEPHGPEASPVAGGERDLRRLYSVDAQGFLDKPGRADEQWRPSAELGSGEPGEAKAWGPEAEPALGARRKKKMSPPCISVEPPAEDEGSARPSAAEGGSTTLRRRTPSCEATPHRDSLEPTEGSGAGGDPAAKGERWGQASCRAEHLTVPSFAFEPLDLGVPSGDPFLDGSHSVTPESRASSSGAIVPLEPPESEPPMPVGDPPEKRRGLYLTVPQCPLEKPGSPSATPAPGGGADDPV
Chain of T-type calcium channel (Homo sapiens, UniProt O43497) (O43497 whole entry): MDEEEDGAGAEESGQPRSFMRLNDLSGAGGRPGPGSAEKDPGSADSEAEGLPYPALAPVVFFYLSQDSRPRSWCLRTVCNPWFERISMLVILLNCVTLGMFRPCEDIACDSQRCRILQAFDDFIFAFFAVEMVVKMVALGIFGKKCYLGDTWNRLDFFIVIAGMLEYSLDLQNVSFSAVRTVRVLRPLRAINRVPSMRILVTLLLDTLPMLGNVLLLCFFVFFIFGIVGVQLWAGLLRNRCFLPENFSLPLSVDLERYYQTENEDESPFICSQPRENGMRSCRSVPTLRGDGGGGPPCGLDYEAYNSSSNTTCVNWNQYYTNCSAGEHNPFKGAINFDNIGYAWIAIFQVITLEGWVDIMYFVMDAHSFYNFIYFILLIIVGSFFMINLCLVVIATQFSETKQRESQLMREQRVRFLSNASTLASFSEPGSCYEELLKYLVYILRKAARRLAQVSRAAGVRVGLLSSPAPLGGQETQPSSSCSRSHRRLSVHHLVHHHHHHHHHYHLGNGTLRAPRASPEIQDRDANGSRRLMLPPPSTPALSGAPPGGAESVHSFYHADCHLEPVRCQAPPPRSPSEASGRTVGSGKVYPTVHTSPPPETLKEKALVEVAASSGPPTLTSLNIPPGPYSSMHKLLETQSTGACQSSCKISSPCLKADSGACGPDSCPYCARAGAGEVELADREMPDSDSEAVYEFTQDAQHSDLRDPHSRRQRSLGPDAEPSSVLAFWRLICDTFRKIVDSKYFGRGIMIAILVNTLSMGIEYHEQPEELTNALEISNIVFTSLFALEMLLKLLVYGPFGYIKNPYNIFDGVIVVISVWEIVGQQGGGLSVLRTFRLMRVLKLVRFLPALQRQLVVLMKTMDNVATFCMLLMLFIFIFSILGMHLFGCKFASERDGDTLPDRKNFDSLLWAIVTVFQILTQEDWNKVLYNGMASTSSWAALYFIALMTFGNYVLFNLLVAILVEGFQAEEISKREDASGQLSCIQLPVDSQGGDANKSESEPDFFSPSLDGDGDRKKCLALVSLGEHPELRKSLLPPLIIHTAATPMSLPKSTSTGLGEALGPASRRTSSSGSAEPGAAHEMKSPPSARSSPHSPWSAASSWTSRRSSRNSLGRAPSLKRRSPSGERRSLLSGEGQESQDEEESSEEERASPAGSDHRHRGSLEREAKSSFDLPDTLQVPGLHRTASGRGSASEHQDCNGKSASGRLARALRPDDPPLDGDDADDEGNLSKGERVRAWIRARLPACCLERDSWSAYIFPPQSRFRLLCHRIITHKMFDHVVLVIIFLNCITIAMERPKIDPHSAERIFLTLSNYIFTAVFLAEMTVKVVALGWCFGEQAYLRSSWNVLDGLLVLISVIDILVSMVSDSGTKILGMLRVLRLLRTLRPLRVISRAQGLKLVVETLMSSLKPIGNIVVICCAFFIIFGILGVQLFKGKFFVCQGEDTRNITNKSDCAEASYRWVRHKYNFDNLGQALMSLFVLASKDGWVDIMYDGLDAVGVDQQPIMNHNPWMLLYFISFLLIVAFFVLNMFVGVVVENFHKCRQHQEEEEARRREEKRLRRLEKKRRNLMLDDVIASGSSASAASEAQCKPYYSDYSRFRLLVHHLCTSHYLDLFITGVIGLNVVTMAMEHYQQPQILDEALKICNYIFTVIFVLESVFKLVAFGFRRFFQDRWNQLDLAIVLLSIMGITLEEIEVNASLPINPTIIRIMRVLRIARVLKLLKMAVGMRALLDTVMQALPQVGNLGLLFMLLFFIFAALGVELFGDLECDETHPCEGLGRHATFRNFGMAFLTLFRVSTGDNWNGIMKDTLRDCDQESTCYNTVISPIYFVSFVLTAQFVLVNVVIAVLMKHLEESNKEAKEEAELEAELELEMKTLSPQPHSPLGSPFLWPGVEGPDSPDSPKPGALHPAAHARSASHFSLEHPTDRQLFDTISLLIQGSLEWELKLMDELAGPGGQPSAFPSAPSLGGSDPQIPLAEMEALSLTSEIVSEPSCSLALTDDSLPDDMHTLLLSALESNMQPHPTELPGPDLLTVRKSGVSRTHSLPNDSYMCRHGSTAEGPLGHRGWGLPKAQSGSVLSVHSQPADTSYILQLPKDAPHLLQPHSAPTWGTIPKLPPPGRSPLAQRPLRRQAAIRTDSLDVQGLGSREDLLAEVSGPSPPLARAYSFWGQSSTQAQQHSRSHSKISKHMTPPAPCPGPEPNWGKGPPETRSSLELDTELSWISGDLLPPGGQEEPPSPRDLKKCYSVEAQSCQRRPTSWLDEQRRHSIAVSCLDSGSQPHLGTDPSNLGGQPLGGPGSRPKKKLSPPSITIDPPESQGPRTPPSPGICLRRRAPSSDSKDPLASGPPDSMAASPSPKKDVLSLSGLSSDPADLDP

SMILES | IC50 (T-type calcium channel [1]; [5]) [µM] | IC50 (T-type calcium channel [1]; [6]) [µM] | CAv3.2 IC50 Ratio closed/inact. (T-type calcium channel [1]) | IC50 (T-type calcium channel [2]) [µM] | IC50 (Human Cav 2.2 channels; [7]) [µM] | IC50 (Human Cav 2.2 channels; [8]) [µM] | CAv2.2 IC50 Ratio closed/inact. (Human Cav 2.2 channels) | EPILEPSY ROTAROD (% IMPAIRED) 0.25 hr (mice) [%] | EPILEPSY ROTAROD (% IMPAIRED) 0.5 hr (mice) [%] | EPILEPSY ROTAROD (% IMPAIRED) 1 hr (mice) [%] | EPILEPSY ROTAROD (% IMPAIRED) 2 hr (mice) [%] | EPILEPSY ROTAROD (% IMPAIRED) 4 hr (mice) [%] | Epilepsy 6 Hz (% protected) 0.25 hr (male CF1 mice) [%] | Epilepsy 6 Hz (% protected) 0.5 hr (male CF1 mice) [%] | Epilepsy 6 Hz (% protected) 1 hr (male CF1 mice) [%] | Epilepsy 6 Hz (% protected) 2 hr (male CF1 mice) [%] | Epilepsy 6 Hz (% protected) 4 hr (male CF1 mice) [%] | IC50 (CAv1.2; [3]) [µM] | IC50 (CAv1.2; [4]) [µM] | CAv1.2 IC50 Ratio closed/inact. (CAv1.2)
O=C(NC1CCC(F)(S(=O)(=O)c2cccc(C(F)(F)F)c2)CC1)[C@@H]1C[C@@H](c2ccccc2)CN1 (stereo partly drawn) [Compound 285, (2S,4S)-N-((1S,4R)-4-fluoro-4-(3-(trifluoromethyl)phenylsulfonyl)cyclohexyl)-4-phenylpyrrolidine-2-carboxamide] | – | – | – | – | – | – | – | 100 | 100 | 100 | 100 | 0 | 0 | 100 | 100 | 100 | 0 | – | – | –
CC(C)([C@H]1C[C@@H](NC(=O)c2ccc(C(F)(F)F)cc2S(C)(=O)=O)C1)S(=O)(=O)c1cccc(C(F)(F)F)c1 [Compound 542] | – | – | – | – | – | – | – | 0 | 0 | 0 | 0 | 0 | 0 | 0 | 0 | 0 | 0 | – | – | –
CC(C)([C@H]1C[C@@H](NC(=O)c2cc(C(F)(F)F)n[nH]2)C1)S(=O)(=O)c1cccc(C(F)(F)F)c1 [Compound 543] | – | – | – | – | – | – | – | 0 | 0 | 0 | 0 | 0 | 0 | 0 | 0 | 0 | 0 | – | – | –
CC(C)([C@H]1C[C@@H](NC(=O)c2cc(C(F)(F)F)ccn2)C1)S(=O)(=O)c1cccc(C(F)(F)F)c1 [Compound 551] | – | – | – | – | – | – | – | 0 | 0 | 0 | 0 | 0 | 25 | 0 | 0 | 0 | 0 | – | – | –
CC(C)([C@H]1C[C@H](C(=O)Nc2ccc(Cl)cn2)C1)S(=O)(=O)c1cccc(C(F)(F)F)c1 [Compound 761] | ≥ 10 | 1.71 | 5.8 | 4.19 | 1.6 | 0.15 | 10.7 | – | – | – | – | – | – | – | – | – | – | 8.54 | 4.61 | 1.9
CC(C)([C@H]1C[C@H](C(=O)Nc2cc(C(F)(F)F)n[nH]2)C1)S(=O)(=O)c1cccc(C(F)(F)F)c1 [Compound 762] | ≥ 10 | 1.84 | 5.4 | 2.63 | 6.26 | 0.39 | 16.1 | – | – | – | – | – | – | – | – | – | – | ≥ 10 | 7.23 | 1.4
CC(C)([C@H]1C[C@H](C(=O)Nc2ccc(C(F)(F)F)cc2Cl)C1)S(=O)(=O)c1cccc(C(F)(F)F)c1 [Compound 763] | 7.02 | 0.96 | 7.3 | 6.44 | 2.04 | 0.27 | 7.6 | – | – | – | – | – | – | – | – | – | – | ≥ 10 | 2.19 | 4.6
CC(C)([C@H]1C[C@H](C(=O)NCc2ccc(C(F)(F)F)nc2)C1)S(=O)(=O)c1cccc(C(F)(F)F)c1 [Compound 767] | ≥ 10 | 9.57 | 1 | ≥ 10 | 5.37 | 0.57 | 9.4 | – | – | – | – | – | – | – | – | – | – | ≥ 10 | 5.14 | 1.9
Cc1nc(C(F)(F)F)ccc1NC(=O)[C@H]1C[C@H](C(C)(C)S(=O)(=O)c2cccc(C(F)(F)F)c2)C1 [Compound 768] | 6.82 | 3.56 | 1.9 | 4.57 | 4.17 | 0.39 | 10.7 | – | – | – | – | – | – | – | – | – | – | ≥ 10 | 4.42 | 2.3
O=C(NC[C@H]1C[C@H](S(=O)(=O)c2cccc(Cl)c2)C1)c1ccc(C(F)(F)F)cc1 [Compound 771] | 5.44 | 3.04 | 1.8 | ≥ 10 | 10 | 2.01 | 5 | – | – | – | – | – | – | – | – | – | – | ≥ 10 | ≥ 10 | –
O=C(NC[C@H]1C[C@H](S(=O)(=O)c2cccc(Cl)c2)C1)c1ccc(OCC(F)(F)F)nc1 [Compound 775] | 8.66 | 1.62 | 5.3 | ≥ 10 | 10 | 5.78 | 1.7 | – | – | – | – | – | – | – | – | – | – | ≥ 10 | ≥ 10 | –

Second part, led by results:

IC50 (T-type calcium channel [1]; [5]) [µM] | IC50 (T-type calcium channel [1]; [6]) [µM] | CAv3.2 IC50 Ratio closed/inact. (T-type calcium channel [1]) | IC50 (T-type calcium channel [2]) [µM] | IC50 (Human Cav 2.2 channels; [7]) [µM] | IC50 (Human Cav 2.2 channels; [8]) [µM] | CAv2.2 IC50 Ratio closed/inact. (Human Cav 2.2 channels) | SMILES | EPILEPSY ROTAROD (% IMPAIRED) 0.25 hr (mice) [%] | EPILEPSY ROTAROD (% IMPAIRED) 0.5 hr (mice) [%] | EPILEPSY ROTAROD (% IMPAIRED) 1 hr (mice) [%] | EPILEPSY ROTAROD (% IMPAIRED) 2 hr (mice) [%] | EPILEPSY ROTAROD (% IMPAIRED) 4 hr (mice) [%] | Epilepsy 6 Hz (% protected) 0.25 hr (male CF1 mice) [%] | Epilepsy 6 Hz (% protected) 0.5 hr (male CF1 mice) [%] | Epilepsy 6 Hz (% protected) 1 hr (male CF1 mice) [%] | Epilepsy 6 Hz (% protected) 2 hr (male CF1 mice) [%] | Epilepsy 6 Hz (% protected) 4 hr (male CF1 mice) [%] | IC50 (CAv1.2; [3]) [µM] | IC50 (CAv1.2; [4]) [µM] | CAv1.2 IC50 Ratio closed/inact. (CAv1.2)
3.55 | 2.07 | 1.7 | 2.27 | 3.67 | 0.48 | 7.6 | CC(C)([C@H]1C[C@@H](C(=O)Nc2ccc(C(F)(F)F)nc2)C1)S(=O)(=O)c1cccc(C(F)(F)F)c1 [Compound 759] | – | – | – | – | – | – | – | – | – | – | 5.1 | 2.18 | 2.3
4.62 | 0.73 | 6.3 | 2.8 | 2.87 | 0.19 | 15.1 | CC(C)([C@H]1C[C@H](C(=O)Nc2ccc(C(F)(F)F)nc2)C1)S(=O)(=O)c1cccc(C(F)(F)F)c1 [Compound 760] | – | – | – | – | – | – | – | – | – | – | ≥ 10 | 3.55 | 2.8
2.9 | 0.43 | 6.7 | 0.78 | 1.02 | 0.11 | 9.3 | CC(C)([C@H]1C[C@H](C(=O)NCc2ccc(Oc3ccccc3)cc2)C1)S(=O)(=O)c1cccc(C(F)(F)F)c1 [Compound 764] | – | – | – | – | – | – | – | – | – | – | 3.24 | 0.83 | 3.9
4.6 | 1.5 | 3.1 | 2.01 | 3.4 | 0.42 | 8.1 | CC(C)([C@H]1C[C@H](C(=O)Nc2ccc(C(F)(F)F)cc2)C1)S(=O)(=O)c1cccc(C(F)(F)F)c1 [Compound 765] | – | – | – | – | – | – | – | – | – | – | 6.71 | 2.25 | 3
4.2 | 2.38 | 1.8 | 2.65 | 1.69 | 0.13 | 13 | CC(C)([C@H]1C[C@H](C(=O)Nc2ccc(C(F)(F)F)cn2)C1)S(=O)(=O)c1cccc(C(F)(F)F)c1 [Compound 766] | – | – | – | – | – | – | – | – | – | – | 3.72 | 2.07 | 1.8
5.36 | 3.78 | 1.4 | 4.72 | 4.98 | 0.34 | 14.6 | Cn1nc(C(F)(F)F)cc1NC(=O)[C@H]1C[C@H](C(C)(C)S(=O)(=O)c2cccc(C(F)(F)F)c2)C1 [Compound 769] | – | – | – | – | – | – | – | – | – | – | 8.49 | 1.47 | 5.8
